In PubChem BioAssay (NCI):
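Five concentrations, 48 hours, 96-well plates. GI50 marks 50% less growth. TGI: total growth inhibition.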

Key:
Assay in all cases: inhibition of tumour cell growth, NCI panel, 48 h
A498 renal = system: A498 renal
CCRF-CEM leukemia = system: CCRF-CEM leukemia
COLO 205 colon = system: COLO 205 colon
K-562 leukemia = system: K-562 leukemia
M14 melanoma = system: M14 melanoma
NCI-H23 lung = system: NCI-H23 lung
OVCAR-3 ovarian = system: OVCAR-3 ovarian
OVCAR-5 ovarian = system: OVCAR-5 ovarian
SNB-75 CNS = system: SNB-75 CNS
BT-549 breast = system: BT-549 breast

Cc1ccccc1C(=O)c1ccccc1O
TGI (A498 renal): > 100 µM | TGI (CCRF-CEM leukemia): > 100 µM | TGI (COLO 205 colon): > 100 µM | TGI (K-562 leukemia): > 100 µM | TGI (M14 melanoma): > 100 µM | TGI (NCI-H23 lung): > 100 µM | TGI (OVCAR-3 ovarian): > 100 µM | TGI (OVCAR-5 ovarian): > 100 µM | TGI (SNB-75 CNS): > 100 µM

COC(=O)C(=O)OC1(C(C)=O)CC2(c3ccccc3)OC1(c1ccccc1)c1ccccc12 (centres undefined)
TGI (A498 renal): 33.4 µM | TGI (CCRF-CEM leukemia): > 100 µM | TGI (COLO 205 colon): 29.5 µM | TGI (K-562 leukemia): > 100 µM | TGI (M14 melanoma): 31.9 µM | TGI (NCI-H23 lung): 33.3 µM | TGI (OVCAR-3 ovarian): 27.9 µM | TGI (OVCAR-5 ovarian): 63 µM | TGI (SNB-75 CNS): 61.5 µM

CC(=O)[CH-]C(=O)c1ccccc1.CC(=O)[CH-]C(=O)c1ccccc1.CC1(C)C2CCC1(C)C([O-])C2.CC1(C)C2CCC1(C)C([O-])C2.[Ti+4]
GI50 (CCRF-CEM leukemia): 25.1 µM | TGI (CCRF-CEM leukemia): > 100 µM | GI50 (COLO 205 colon): 38.4 µM | TGI (COLO 205 colon): > 100 µM | GI50 (K-562 leukemia): 30.5 µM | TGI (K-562 leukemia): > 100 µM | GI50 (M14 melanoma): 20.4 µM | TGI (M14 melanoma): 44.1 µM | GI50 (OVCAR-3 ovarian): 59.3 µM | TGI (OVCAR-3 ovarian): > 100 µM | GI50 (OVCAR-5 ovarian): > 100 µM | TGI (OVCAR-5 ovarian): > 100 µM

CC1(CO)OC(n2cc(C(=O)NC(=O)OCc3ccccc3)c(=O)[nH]c2=O)CC1O (centres undefined)
TGI (A498 renal): > 100 µM | TGI (CCRF-CEM leukemia): > 100 µM | TGI (COLO 205 colon): > 100 µM | TGI (K-562 leukemia): > 100 µM | TGI (M14 melanoma): > 100 µM | TGI (NCI-H23 lung): > 100 µM | TGI (OVCAR-3 ovarian): > 100 µM | TGI (SNB-75 CNS): > 100 µM

CCCCCCCCCCCCCC(=O)CC(=O)c1c(O)cccc1O
TGI (A498 renal): > 100 µM | TGI (CCRF-CEM leukemia): 41.6 µM | TGI (COLO 205 colon): 55.1 µM | TGI (K-562 leukemia): 48.2 µM | TGI (M14 melanoma): > 100 µM | TGI (NCI-H23 lung): 84.2 µM | TGI (OVCAR-3 ovarian): 37.3 µM | TGI (OVCAR-5 ovarian): > 100 µM | TGI (SNB-75 CNS): > 100 µM

N#Cc1c(NN)nc(NN)c(C#N)c1-c1ccccc1
TGI (A498 renal): > 100 µM | TGI (CCRF-CEM leukemia): > 100 µM | TGI (COLO 205 colon): > 100 µM | TGI (K-562 leukemia): > 100 µM | TGI (M14 melanoma): > 100 µM | TGI (NCI-H23 lung): > 100 µM | TGI (OVCAR-3 ovarian): > 100 µM | TGI (OVCAR-5 ovarian): > 100 µM | TGI (SNB-75 CNS): > 100 µM

Cc1cc(S(N)(=O)=O)c(S/C(CC(C)C)=N\Nc2ccc([N+](=O)[O-])cc2)cc1Cl
GI50 (BT-549 breast): 17.7 µM | TGI (BT-549 breast): 31.7 µM | GI50 (COLO 205 colon): 6.46 µM | TGI (COLO 205 colon): 20.9 µM | GI50 (K-562 leukemia): 5.82 µM | TGI (K-562 leukemia): 97 µM | GI50 (M14 melanoma): 4.99 µM | TGI (M14 melanoma): 16.5 µM | GI50 (NCI-H23 lung): 3.74 µM | TGI (NCI-H23 lung): 12.6 µM | GI50 (OVCAR-3 ovarian): 3.19 µM | TGI (OVCAR-3 ovarian): 7.07 µM | GI50 (OVCAR-5 ovarian): 14.8 µM | TGI (OVCAR-5 ovarian): 27.9 µM | GI50 (SNB-75 CNS): 4.05 µM | TGI (SNB-75 CNS): 18.7 µM

CC(=O)[CH-]C(=O)c1ccccc1.CC(=O)[CH-]C(=O)c1ccccc1.CC(C)CCCC(C)[C@H]1CCC2[C@@H]3CC=C4C[C@@H]([O-])CC[C@]4(C)C3CC[C@@]21C.CC[O-].[Ti+4] (some centres undefined)
GI50 (A498 renal): 53.1 µM | TGI (A498 renal): > 100 µM | GI50 (CCRF-CEM leukemia): 35.5 µM | TGI (CCRF-CEM leukemia): > 100 µM | GI50 (COLO 205 colon): 48.5 µM | TGI (COLO 205 colon): > 100 µM | GI50 (K-562 leukemia): 33.1 µM | TGI (K-562 leukemia): > 100 µM | GI50 (M14 melanoma): 48.3 µM | TGI (M14 melanoma): > 100 µM | GI50 (NCI-H23 lung): 26.9 µM | TGI (NCI-H23 lung): 84.2 µM | GI50 (OVCAR-3 ovarian): 49.7 µM | TGI (OVCAR-3 ovarian): > 100 µM | GI50 (OVCAR-5 ovarian): > 100 µM | TGI (OVCAR-5 ovarian): > 100 µM | GI50 (SNB-75 CNS): 28.5 µM | TGI (SNB-75 CNS): > 100 µM

O=c1cc2ccccc2nn1Cc1cccc(Cl)c1
TGI (A498 renal): > 100 µM | TGI (CCRF-CEM leukemia): > 100 µM | TGI (COLO 205 colon): > 100 µM | TGI (K-562 leukemia): > 100 µM | TGI (M14 melanoma): > 100 µM | TGI (NCI-H23 lung): > 100 µM | TGI (OVCAR-3 ovarian): > 100 µM | TGI (OVCAR-5 ovarian): > 100 µM | TGI (SNB-75 CNS): > 100 µM

C[S+](C)CCOC(=O)C(=[N+]=[N-])c1ccc([N+](=O)[O-])cc1
TGI (A498 renal): > 100 µM | TGI (CCRF-CEM leukemia): > 100 µM | TGI (COLO 205 colon): > 100 µM | TGI (K-562 leukemia): > 100 µM | TGI (M14 melanoma): > 100 µM | TGI (NCI-H23 lung): > 100 µM | TGI (OVCAR-3 ovarian): > 100 µM | TGI (OVCAR-5 ovarian): > 100 µM | TGI (SNB-75 CNS): > 100 µM

Cc1ccc(-n2c3c(c4c(CN(C)C)c(O)ccc42)CCc2ccccc2C3=O)cc1
GI50 (A498 renal): 15.1 µM | TGI (A498 renal): 49.1 µM | GI50 (BT-549 breast): 14.9 µM | TGI (BT-549 breast): 29.7 µM | GI50 (COLO 205 colon): > 100 µM | TGI (COLO 205 colon): > 100 µM | GI50 (K-562 leukemia): 10.2 µM | TGI (K-562 leukemia): 25.9 µM | GI50 (M14 melanoma): 16.1 µM | TGI (M14 melanoma): 30.2 µM | GI50 (NCI-H23 lung): 14.6 µM | TGI (NCI-H23 lung): 29.6 µM | GI50 (OVCAR-3 ovarian): 21.4 µM | TGI (OVCAR-3 ovarian): 44.5 µM | GI50 (OVCAR-5 ovarian): 19.7 µM | TGI (OVCAR-5 ovarian): 52.9 µM

CCCCCC/C=C1\CCC(CN2CCCC2)C1=O (centres undefined)
TGI (A498 renal): 38.4 µM | TGI (CCRF-CEM leukemia): 20.9 µM | TGI (COLO 205 colon): 36.3 µM | TGI (K-562 leukemia): 12.6 µM | TGI (M14 melanoma): 33.6 µM | TGI (NCI-H23 lung): 33.8 µM | TGI (OVCAR-3 ovarian): 27.3 µM | TGI (OVCAR-5 ovarian): 32.3 µM | TGI (SNB-75 CNS): 38.3 µM

CC(C)c1ccc(C2C3=C(N=C4SCC(=O)N42)C(=O)c2ccccc23)cc1 (centres undefined)
TGI (A498 renal): > 100 µM | TGI (CCRF-CEM leukemia): > 100 µM | TGI (COLO 205 colon): > 100 µM | TGI (K-562 leukemia): > 100 µM | TGI (M14 melanoma): > 100 µM | TGI (NCI-H23 lung): > 100 µM | TGI (OVCAR-3 ovarian): > 100 µM | TGI (OVCAR-5 ovarian): > 100 µM | TGI (SNB-75 CNS): > 100 µM

CCC/C(=N/N=C(N)N)c1ccc(NC(=O)c2cc3cc(OC)ccc3[nH]2)cc1
GI50 (A498 renal): 19.9 µM | TGI (A498 renal): 54.2 µM | GI50 (BT-549 breast): 13.5 µM | TGI (BT-549 breast): 53.5 µM | GI50 (COLO 205 colon): 9.77 µM | TGI (COLO 205 colon): 30 µM | GI50 (NCI-H23 lung): 16 µM | TGI (NCI-H23 lung): 36.2 µM | GI50 (OVCAR-3 ovarian): 6.36 µM | TGI (OVCAR-3 ovarian): 29.7 µM | GI50 (OVCAR-5 ovarian): 14.7 µM | TGI (OVCAR-5 ovarian): 32.3 µM | GI50 (SNB-75 CNS): 2.94 µM | TGI (SNB-75 CNS): 18 µM

O=C(CC1(O)C(=O)Nc2c(Cl)ccc(Cl)c21)c1ccc2ccccc2c1 (centres undefined)
TGI (A498 renal): 34.7 µM | TGI (CCRF-CEM leukemia): > 100 µM | TGI (COLO 205 colon): 28.7 µM | TGI (M14 melanoma): 21.3 µM | TGI (NCI-H23 lung): 27 µM | TGI (OVCAR-3 ovarian): 14.3 µM | TGI (OVCAR-5 ovarian): 39.5 µM | TGI (SNB-75 CNS): 54 µM

O=C(Nc1cc(Cl)cc(Cl)c1)c1ccc(NC2=C(Cl)C(=O)N(Cc3ccc(Cl)cc3Cl)C2=O)cc1
GI50 (BT-549 breast): 1.57 µM | TGI (BT-549 breast): 7.22 µM | GI50 (CCRF-CEM leukemia): 0.22 µM | TGI (CCRF-CEM leukemia): 0.819 µM | GI50 (COLO 205 colon): 12.1 µM | TGI (COLO 205 colon): 35.4 µM | GI50 (K-562 leukemia): 1.33 µM | TGI (K-562 leukemia): 10.7 µM | GI50 (M14 melanoma): 10.1 µM | TGI (M14 melanoma): 61.7 µM | GI50 (NCI-H23 lung): 3.71 µM | TGI (NCI-H23 lung): 19.2 µM | GI50 (OVCAR-3 ovarian): 26.8 µM | TGI (OVCAR-3 ovarian): 70.2 µM | GI50 (OVCAR-5 ovarian): > 100 µM | TGI (OVCAR-5 ovarian): > 100 µM | GI50 (SNB-75 CNS): 68 µM | TGI (SNB-75 CNS): > 100 µM

c1ccc2[nH]c(-c3ccc(NN=Nc4ccncc4)cc3)nc2c1
GI50 (BT-549 breast): 4.39 µM | TGI (BT-549 breast): > 100 µM | GI50 (COLO 205 colon): 27 µM | TGI (COLO 205 colon): > 100 µM | GI50 (K-562 leukemia): 14.6 µM | TGI (K-562 leukemia): 61.8 µM | GI50 (M14 melanoma): > 100 µM | TGI (M14 melanoma): > 100 µM | GI50 (OVCAR-3 ovarian): 15.1 µM | TGI (OVCAR-3 ovarian): > 100 µM | GI50 (OVCAR-5 ovarian): > 100 µM | TGI (OVCAR-5 ovarian): > 100 µM | GI50 (SNB-75 CNS): > 100 µM | TGI (SNB-75 CNS): > 100 µM

COc1ccc(/C=C/C(=O)c2ccc(SC)cc2)cc1OC
GI50 (BT-549 breast): 2.86 µM | TGI (BT-549 breast): 6.66 µM | GI50 (CCRF-CEM leukemia): 5.26 µM | TGI (CCRF-CEM leukemia): 82.1 µM | GI50 (COLO 205 colon): 21 µM | TGI (COLO 205 colon): > 100 µM | GI50 (K-562 leukemia): 4.09 µM | TGI (K-562 leukemia): 33.8 µM | GI50 (M14 melanoma): 3.83 µM | TGI (M14 melanoma): 14.2 µM | GI50 (NCI-H23 lung): 2.82 µM | TGI (NCI-H23 lung): 10.4 µM | GI50 (OVCAR-3 ovarian): 2.12 µM | TGI (OVCAR-3 ovarian): 6.47 µM | GI50 (OVCAR-5 ovarian): 16.4 µM | TGI (OVCAR-5 ovarian): 31.7 µM | GI50 (SNB-75 CNS): 17 µM | TGI (SNB-75 CNS): 37.2 µM
